Structures can show the parent of a compound that is named as a salt.
Legend:
[1] = target: T1, VAP-1 in abdominal fat of mice (Mus musculus, UniProt O70423); assay: Inhibition of the enzymatic activity of VAP-1 ex-vivo, abdominal fat after oral dosing; format: in vivo, BALBc mice; conditions: 0.5 mg/kg oral, abdominal fat collected after six hours; for inhibition at 0.5 mg/kg: mouse, read-out: Inhibition rate (%) against the enzymatic activity of VAP-1 (ex-vivo)
T1 construct: abdominal fat was collected and homogenized; from tissue; host or cells: abdominal fat of BALBc mice (homogenate supernatant)
T1 sequence (O70423 1-765): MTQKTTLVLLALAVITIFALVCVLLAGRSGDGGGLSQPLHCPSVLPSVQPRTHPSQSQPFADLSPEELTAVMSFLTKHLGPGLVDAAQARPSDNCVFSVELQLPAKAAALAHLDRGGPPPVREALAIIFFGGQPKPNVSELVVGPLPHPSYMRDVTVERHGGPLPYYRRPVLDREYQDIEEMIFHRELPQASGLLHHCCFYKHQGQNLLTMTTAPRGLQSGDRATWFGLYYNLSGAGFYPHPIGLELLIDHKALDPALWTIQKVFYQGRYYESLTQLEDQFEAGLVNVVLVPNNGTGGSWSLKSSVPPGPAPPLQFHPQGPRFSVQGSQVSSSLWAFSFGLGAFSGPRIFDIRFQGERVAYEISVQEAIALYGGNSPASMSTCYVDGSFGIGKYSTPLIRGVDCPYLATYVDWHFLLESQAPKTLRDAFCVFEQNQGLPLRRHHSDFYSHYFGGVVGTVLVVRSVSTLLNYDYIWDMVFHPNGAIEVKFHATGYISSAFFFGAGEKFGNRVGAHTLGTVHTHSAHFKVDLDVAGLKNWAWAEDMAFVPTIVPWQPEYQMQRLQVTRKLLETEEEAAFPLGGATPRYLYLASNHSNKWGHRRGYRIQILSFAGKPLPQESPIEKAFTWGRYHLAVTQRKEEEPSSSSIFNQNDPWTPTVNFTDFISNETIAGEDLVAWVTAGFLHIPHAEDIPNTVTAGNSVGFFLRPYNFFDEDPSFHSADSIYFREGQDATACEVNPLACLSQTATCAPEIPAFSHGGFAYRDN
Procedure: Inhibition Experiment Against the Enzymatic Activity (ex-vivo)
Tissue homogenate buffer solution (20 mM HEPES, pH 7.2, 1 mM EDTA, 250 mM sucrose, PMSF 0.2 mM)
Reaction buffer solution: 50 mM PBS, pH 7.4
Test kit: Amplex® Red Monoamine Oxidase Assay, Manufacturer: ThermoFisher
BALBc mice were administrated orally with different doses of the test compound, and the vehicle group was used as the control group. After six hours, abdominal fat was collected and homogenized at 1:20 (w/v) with the pre-cooled homogenate buffer solution, and thereafter, the homogenate was centrifuged at 10,000 g and 4° C. or 10 minutes, the supernatant was collected and stored at -80° C. for further use.
A test sample was diluted with the reaction buffer solution and successively added with the inhibition solution A: 1 μM Clorgyline+1 μM pargylin, to inhibit the activities of MAO-A and MAO-B, and the inhibition solution B: 1 μM Clorgyline+1 μM Pargylin+1 μM Mofegiline as the blank control, and after being incubated at room temperature for 20 min, 500 μM benzylamine hydrochloride, 1 U/mL HRP and 200 μM Amplex Red reagent were added to start the reaction. By referring to the method in “Experiment of inhibiting the enzymatic activity of VAP-1”, relative activity of each dose group was calculated, wherein the ratio of the fluorescent signal to reaction time in the linear range is the reaction rate, and the vehicle group is the positive control, thereby to study the inhibition of the compound against the enzymatic activity of VAP-1 in abdominal fat of mice.

[2] = target: T2, CYP1A2 (Homo sapiens, UniProt P05177); assay: Inhibition of cytochrome P450 isoenzyme CYP1A2 (P450-Glo); format: in vitro ADME; conditions: estimated from inhibition rates at 10 μM and 1 μM
T2 construct: purchased Promega
T2 sequence (P05177 1-516): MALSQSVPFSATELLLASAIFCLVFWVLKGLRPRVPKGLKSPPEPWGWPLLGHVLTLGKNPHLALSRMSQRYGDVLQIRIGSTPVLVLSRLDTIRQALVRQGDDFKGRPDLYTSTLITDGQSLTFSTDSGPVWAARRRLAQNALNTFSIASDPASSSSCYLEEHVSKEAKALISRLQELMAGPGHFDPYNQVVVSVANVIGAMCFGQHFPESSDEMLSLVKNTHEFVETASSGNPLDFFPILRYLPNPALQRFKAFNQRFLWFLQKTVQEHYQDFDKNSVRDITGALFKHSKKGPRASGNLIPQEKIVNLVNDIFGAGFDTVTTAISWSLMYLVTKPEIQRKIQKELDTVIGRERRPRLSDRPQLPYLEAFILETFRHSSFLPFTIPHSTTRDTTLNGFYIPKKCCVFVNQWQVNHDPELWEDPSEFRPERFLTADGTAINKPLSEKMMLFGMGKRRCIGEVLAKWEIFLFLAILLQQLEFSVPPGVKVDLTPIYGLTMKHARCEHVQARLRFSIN
Procedure: (§1) Inhibition Experiment Against Cytochrome P450 Isoenzyme (CYP)
P450-Glo™ CYP1A2 Screening System, manufacturer: Promega
(§2) According to the specification of the test kit, 10 nM CYP1A2, 5 nMCYP2D6, and 1 nM CYP3A4 proteins and corresponding substrates (100 μM, 30 μM, 3 μM) as well as the compound were pre-incubating respectively for 10 min, G6PDH-G6P-NADP regeneration system was added to start the reaction, a test reagent was added later, after 20 min, the chemical luminescent signals were detectted.
(§3) Percent inhibition rate (%)=(1-(signal of each compound concentration group-signal of the blank group)/(signal of the negative control-signal of the blank group))*100.
(§4) According to the inhibition rates of the compound at different concentrations against P450 enzyme, the half inhibition concentration (IC5o) or range was estimated.
(§5) IC50=X*(1-percent inhibition rate (%))/percent inhibition rate (%), wherein, X is the test concentration of the compound.
(§6) According to the above method, the inhibition of the compound at the concentrations 10 μM, and 1 μM, against three CYPs were measured, and the results were shown in the following Tables 10-12: […]

[3] = target: T3, CYP2D6 (Homo sapiens, UniProt P10635); assay: Inhibition of cytochrome P450 isoenzyme CYP2D6 (P450-Glo); format: in vitro ADME; conditions: estimated from inhibition rates at 10 μM and 1 μM; for IC50: read-out: IC50, inhibition against CYP2D6
T3 construct: purchased Promega
T3 sequence (P10635 whole entry): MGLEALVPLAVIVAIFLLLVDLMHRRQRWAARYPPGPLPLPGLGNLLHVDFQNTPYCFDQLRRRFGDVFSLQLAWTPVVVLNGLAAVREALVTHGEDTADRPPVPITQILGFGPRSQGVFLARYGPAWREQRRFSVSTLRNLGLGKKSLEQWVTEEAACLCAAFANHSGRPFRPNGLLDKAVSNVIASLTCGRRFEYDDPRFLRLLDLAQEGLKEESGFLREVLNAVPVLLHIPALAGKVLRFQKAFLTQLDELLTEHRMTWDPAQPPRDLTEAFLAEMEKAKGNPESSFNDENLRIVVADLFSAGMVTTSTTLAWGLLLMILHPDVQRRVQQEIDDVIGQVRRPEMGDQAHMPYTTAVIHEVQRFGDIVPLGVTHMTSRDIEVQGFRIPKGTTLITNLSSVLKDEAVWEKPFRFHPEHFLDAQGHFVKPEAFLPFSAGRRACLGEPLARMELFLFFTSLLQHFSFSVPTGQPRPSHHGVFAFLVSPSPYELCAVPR
Procedure: as §1
P450-Glo™ CYP2D6 Screening System, manufacturer: Promega
as §2, §3, §4, §5, §6

[4] = target: T4, CYP3A4 (Homo sapiens, UniProt P08684); assay: Inhibition of cytochrome P450 isoenzyme CYP3A4 (P450-Glo); format: in vitro ADME; conditions: estimated from inhibition rates at 10 μM and 1 μM; for IC50: read-out: IC50, inhibition against CYP3A4
T4 construct: purchased Promega
T4 sequence (P08684 whole entry): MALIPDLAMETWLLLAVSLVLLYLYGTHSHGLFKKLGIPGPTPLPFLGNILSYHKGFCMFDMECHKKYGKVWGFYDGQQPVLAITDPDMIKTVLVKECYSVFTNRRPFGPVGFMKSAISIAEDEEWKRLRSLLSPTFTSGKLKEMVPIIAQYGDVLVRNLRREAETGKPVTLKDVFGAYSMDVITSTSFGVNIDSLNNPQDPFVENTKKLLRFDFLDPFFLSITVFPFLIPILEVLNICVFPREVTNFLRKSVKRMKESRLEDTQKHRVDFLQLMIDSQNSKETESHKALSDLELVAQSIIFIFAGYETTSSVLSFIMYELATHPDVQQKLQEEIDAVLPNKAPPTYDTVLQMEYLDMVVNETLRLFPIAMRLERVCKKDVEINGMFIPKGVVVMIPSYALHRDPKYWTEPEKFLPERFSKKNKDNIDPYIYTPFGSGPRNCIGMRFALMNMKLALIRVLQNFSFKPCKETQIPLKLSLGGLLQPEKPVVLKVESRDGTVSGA
Procedure: as §1
P450-Glo™ CYP3A4 Screening System, manufacturer: Promega
as §2, §3, §4, §5, §6

| Molecule | Inhibition rate (%) against the enzymatic activity of VAP-1 (ex-vivo) [1] [%] | IC50, inhibition against CYP1A2 [2] | IC50, inhibition against CYP2D6 [3] | IC50 [3] [µM] | IC50, inhibition against CYP3A4 [4] | IC50 [4] [µM] | IC50 ([2]; read-out: IC50, inhibition against CYP1A2) [µM] | inhibition at 0.5 mg/kg [1] [%] |
| --- | --- | --- | --- | --- | --- | --- | --- | --- |
| (E)-6-((2-(methylamino)-3-fluoroallyl)oxy)-2-methyl-3,4-dihydroisoquinolin-1(2H)-one trifluoroacetate [TM66-E] | 92.3 ± 1.9 | do not have significant inhibitions | do not have significant inhibitions | > 10 | do not have significant inhibitions | > 10 | – | – |
| (E)-6-((2-(methylamino)-3-fluoroallyl)oxy)-3,3-dimethyl-3,4-dihydro-isoquinolin-1(2H)-one trifluoroacetate [TM38-E] | 92.7 ± 3.0 | do not have significant inhibitions | do not have significant inhibitions | > 10 | do not have significant inhibitions | > 10 | 6.73 ± 0.39 | – |
| NC/C(=C\F)COc1ccc(C(=O)Nc2ccccc2)cc1 [TM1-E, (E)-N-phenyl-4-((2-aminomethyl-3-fluoroallyl)oxy)-benzamide trifluoroacetate] | – | – | – | – | – | – | – | 96.7 ± 2.2 |
| NC/C(=C\F)COc1ccc(-c2ncccn2)cc1 [TM39-E, (E)-2-(4-(2-pyrimidyl)phenoxymethyl)-3-fluoroallylamine trifluoroacetate] | – | – | – | – | – | – | – | 93 ± 2.7 |
| NC/C(=C/F)COc1ccc2c(c1)CCNC2=O [TM26-Z, (Z)-6-((2-aminomethyl-3-fluoroallyl)oxy)-3,4-dihydroisoquinolin-1(2H)-one trifluoroacetate] | – | – | – | – | – | – | – | 86.6 ± 5.5 |
